Experimental findings from US20260028354A1, “TETRAHYDRONAPHTHALENE DERIVATIVES AS ESTROGEN RECEPTOR DEGRADERS” (REGENT OF THE UNIVERSITY OF MICHIGAN, priority 2022, published 2026) are described below.

Where two headings read alike, the source gives them in different places.

The test system of assay [1] is MCF-7 cells. Kind of assay: CellTiter-Glo (CTG) cell proliferation assay in MCF-7 cells. In kind it is cell-based. The following applies: Homo sapiens, MCF7, 144 h, MCF-7 cell proliferation, Day 6. The text has this: CellTiter-Glo® (CTG) Assays in MCF-7 and T47D Cell Lines.
In vitro Assay: MCF-7 and T47D CTG assay

In assay [2] the target is ER in MCF-7 cells (Homo sapiens (Human), UniProt P03372). Kind of assay: In-cell Western (ICW) ER degradation assay in MCF-7 cells. In kind it is cell-based. The following applies: for DC50: MCF-7, ER degradation, read-out: MCF7 DC50.
Sequence of ER in MCF-7 cells (P03372 whole entry): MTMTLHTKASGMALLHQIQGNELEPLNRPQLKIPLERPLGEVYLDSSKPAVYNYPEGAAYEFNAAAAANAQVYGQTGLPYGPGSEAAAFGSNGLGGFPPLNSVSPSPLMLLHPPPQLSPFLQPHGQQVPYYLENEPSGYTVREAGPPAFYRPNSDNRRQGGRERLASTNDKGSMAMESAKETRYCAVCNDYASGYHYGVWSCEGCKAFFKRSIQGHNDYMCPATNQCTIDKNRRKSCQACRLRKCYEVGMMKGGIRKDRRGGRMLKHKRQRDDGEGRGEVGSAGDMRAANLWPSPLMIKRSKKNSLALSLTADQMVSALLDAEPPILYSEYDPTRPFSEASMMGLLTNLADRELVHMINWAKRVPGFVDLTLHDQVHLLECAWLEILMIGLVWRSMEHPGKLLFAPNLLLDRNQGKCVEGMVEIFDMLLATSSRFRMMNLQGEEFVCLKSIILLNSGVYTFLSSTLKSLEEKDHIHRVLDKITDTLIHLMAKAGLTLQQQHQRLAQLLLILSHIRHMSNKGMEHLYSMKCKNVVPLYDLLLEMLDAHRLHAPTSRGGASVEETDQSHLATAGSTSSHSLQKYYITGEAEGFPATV
The target of assay [3] is CRBN/DDB1 (Homo sapiens (Human), UniProt Q96SW2). It counts as binding. To be noted: His tagged CRBN+DDB1, Cy5-labeled Thalidomide probe, one hour; read-out: CRBN HTRF IC50. The protocol: The binding potency was determined using HTRF assay technology (Perkin Elmer). Compounds were serially diluted in DMSO and […] volume was transferred to white 384-well plate.
Sequence of CRBN/DDB1 (Q96SW2 whole entry, species assumed): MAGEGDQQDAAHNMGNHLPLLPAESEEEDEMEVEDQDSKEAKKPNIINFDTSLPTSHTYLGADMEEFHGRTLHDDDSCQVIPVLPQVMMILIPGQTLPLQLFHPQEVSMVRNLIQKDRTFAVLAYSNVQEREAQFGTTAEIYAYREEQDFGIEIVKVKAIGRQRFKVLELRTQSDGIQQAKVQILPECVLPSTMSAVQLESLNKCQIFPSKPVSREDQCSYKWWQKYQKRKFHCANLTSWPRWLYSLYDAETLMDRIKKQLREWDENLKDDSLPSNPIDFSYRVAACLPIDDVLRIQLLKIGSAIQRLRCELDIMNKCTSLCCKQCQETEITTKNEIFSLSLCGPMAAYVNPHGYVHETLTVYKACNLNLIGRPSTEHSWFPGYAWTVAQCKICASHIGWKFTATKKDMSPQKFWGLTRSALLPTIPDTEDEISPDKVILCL
Sequence of CRBN/DDB1 (Q16531 whole entry partner, species assumed): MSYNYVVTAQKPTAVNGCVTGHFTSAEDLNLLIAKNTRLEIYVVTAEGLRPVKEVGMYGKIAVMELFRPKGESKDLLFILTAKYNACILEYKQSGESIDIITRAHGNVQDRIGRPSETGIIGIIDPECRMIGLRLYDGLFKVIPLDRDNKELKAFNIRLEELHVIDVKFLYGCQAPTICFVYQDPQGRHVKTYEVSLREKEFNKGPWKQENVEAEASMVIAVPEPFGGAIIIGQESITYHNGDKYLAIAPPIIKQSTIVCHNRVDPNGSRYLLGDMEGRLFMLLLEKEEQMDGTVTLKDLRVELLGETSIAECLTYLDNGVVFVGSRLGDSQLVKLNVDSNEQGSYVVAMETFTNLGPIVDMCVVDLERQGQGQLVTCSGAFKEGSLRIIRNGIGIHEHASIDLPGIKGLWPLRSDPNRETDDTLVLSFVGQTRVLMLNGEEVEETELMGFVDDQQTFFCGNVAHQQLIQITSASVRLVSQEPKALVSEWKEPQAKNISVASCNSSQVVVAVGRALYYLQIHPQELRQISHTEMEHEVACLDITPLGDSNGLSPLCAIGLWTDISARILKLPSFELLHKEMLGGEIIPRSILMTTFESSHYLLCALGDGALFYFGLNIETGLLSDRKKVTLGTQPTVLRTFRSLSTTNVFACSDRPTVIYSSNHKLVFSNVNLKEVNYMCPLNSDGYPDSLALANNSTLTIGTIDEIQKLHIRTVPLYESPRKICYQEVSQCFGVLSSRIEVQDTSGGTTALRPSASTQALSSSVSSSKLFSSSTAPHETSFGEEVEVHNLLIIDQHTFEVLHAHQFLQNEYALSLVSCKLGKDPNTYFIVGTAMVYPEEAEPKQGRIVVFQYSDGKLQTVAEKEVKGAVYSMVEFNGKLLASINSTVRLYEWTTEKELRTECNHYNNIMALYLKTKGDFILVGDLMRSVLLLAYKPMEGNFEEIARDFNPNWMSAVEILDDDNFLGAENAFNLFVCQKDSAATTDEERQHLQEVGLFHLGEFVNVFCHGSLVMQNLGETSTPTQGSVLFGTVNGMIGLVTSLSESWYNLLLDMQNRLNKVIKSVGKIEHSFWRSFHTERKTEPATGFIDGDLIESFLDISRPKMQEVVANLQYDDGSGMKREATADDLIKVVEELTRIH
(Time-resolved FRET reads energy transfer from a long-lived donor to a nearby acceptor.)

In assay [4] the target is ER in T47D cells (Homo sapiens (Human), UniProt P03372). The experiment in a line: In-cell Western (ICW) ER degradation assay in T47D cells. It counts as cell-based. The following applies: for DC50: ER degradation.
Sequence of ER in T47D cells (P03372 whole entry): as the sequence (P03372 whole entry) above
The mark [5] stands for this setting: MCF7, MCF-7, maximal ER degradation, 16 hrs treatment, read-out: MCF7 Dmax.
[6] abbreviates: maximal ER degradation, 16 hrs treatment, read-out: T47D Dmax.
Setting [7] is: MCF7, read-out: MCF7 Dmax, MCF-7, maximal ER degradation, 16 hrs treatment.
The mark [8] stands for this setting: read-out: T47D Dmax, T47D, maximal ER degradation, 16 hrs treatment.

By IC50 is commonly meant the concentration that gives 50% inhibition. A word on the Dmax: it is the largest share of the target that was removed. By DC50 is commonly meant the concentration giving 50% degradation.

In assay [1], `COc1cc(N2CCC3(CC2)CC(CN2CCN4c5cc(Cl)c6c(c5OC[C@H]4C2)CN([C@H]2CCC(=O)NC2=O)C6=O)C3)c(F)cc1[C@@H]1c2ccc(O)cc2CC[C@@H]1c1ccccc1` [Compound A221, (S)-3-((R)-12-chloro-7-((7-(2-fluoro-4-((1S,2S)-6-hydroxy-2-phenyl-1,2,3,4-tetrahydronaph-thalen-1-yl)-5-methoxyphenyl)-7-azaspiro[3.5]nonan-2-yl)-methyl)-1-oxo-1,3,5,5a,6,7,8,9-octahydro-2H-pyrazino[1′,2′: 4,5][1,4]oxazino[2,3-e]isoindol-2-yl)piperidine-2,6-dione] came in with an IC50 of over 100 nM.

As for `COc1cc(N2CCC(CCN3CCC4(CC3)COc3c4cc(C)c4c3CN([C@H]3CCC(=O)NC3=O)C4=O)CC2)c(F)cc1[C@@H]1c2ccc(O)cc2CC[C@@H]1c1ccccc1` [Compound A213, (S)-3-(1′-(2-(1-(2-fluoro-4-((1S,2S)-6-hydroxy-2-phenyl-1,2,3,4-tetrahydronaphthalen-1-yl)-5-methoxyphenyl)piper-idin-4-yl)ethyl)-5-methyl-6-oxo-6,8-dihydro-2H,7H-spiro [furo[2,3-e]isoindole-3,4′-piperidin]-7-yl)piperidine-2,6-dione], the IC50 in assay [1] is under 10 nM.

`COc1cc(N2CCC3(CC2)CC(CN2CCC4(CC2)COc2c4cc(OC)c4c2CN([C@@H]2CCC(=O)NC2=O)C4=O)C3)c(F)cc1[C@@H]1c2ccc(O)cc2CC[C@@H]1c1ccccc1` [Compound A223, (R)-3-(1′-((7-(2-fluoro-4-((1S,2S)-6-hydroxy-2-phenyl-1,2,3,4-tetrahydronaphthalen-1-yl)-5-methoxyphenyl)-7-azaspiro[3.5]nonan-2-yl)methyl)-5-methoxy-6-oxo-6,8-dihydro-2H,7H-spiro[furo[2,3-e]isoindole-3,4′-piperidin]-7-yl)piperidine-2,6-dione] gave an IC50 in assay [1] of under 10 nM.

With `COc1cc(N2CCC3(CC2)CC(CN2CCN4c5ccc(C(=O)N[C@H]6CCC(=O)NC6=O)nc5OCC4C2)C3)ccc1[C@@H]1c2ccc(O)cc2CC[C@@H]1c1ccccc1` (stereo in doubt) [Compound A108, (S)-N-((S)-2,6-dioxopiperidin-3-yl)-3-((7-(4-((1S,2S)-6-hydroxy-2-phenyl-1,2,3,4-tetra-hydronaphthalen-1-yl)-3-meth-oxyphenyl)-7-azaspiro[3.5]nonan-2-yl)methyl)-1,2,3,4,4a, 5-hexahydropyrazino[1,2-d] pyrido[2,3-b][1,4]oxazine-8-carboxamide], the Dmax in assay [2] (setting [5]) and in assay [4] (setting [6]) was 50 to 75% throughout. The DC50 in assay [2] (16 hrs treatment) and in assay [4] (16 hrs treatment) was under 1 nM throughout. Further, the IC50 in assay [3] fell in the range of 500 to 5000 nM.

Take `COc1cc(N2CCC(CN3CCN4c5ccc6c(c5OC[C@@H]4C3)CN([C@@H]3CCC(=O)NC3=O)C6=O)CC2)ccc1[C@@H]1c2ccc(O)cc2CC[C@@H]1c1ccccc1` (stereo in doubt) [Compound A23, (R)-3-((S)-7-((1-(4-((1S,2S)-6-hydroxy-2-phenyl-1,2,3,4-tetrahydronaphthalen-1-yl)-3-methoxyphenyl)piperidin-4-yl)methyl)-1-oxo-1,3,5,5a,6,7,8,9-oCtahydro-2H-pyrazino [1′,2′:4,5][1,4]oxazino[2,3-e]isoindol-2-yl)piperidine-2,6-dione]: the results for the Dmax in assay [2] (setting [5]) and in assay [4] (setting [6]) were 25 to 50% and 50 to 75%, respectively. Besides, the DC50 in assay [2] (16 hrs treatment) and in assay [4] (16 hrs treatment) was 10 to 100 nM throughout. The IC50 in assay [3] was under 50 nM.

With `O=C1CCC(Nc2ccc(C34CCN(C[C@@H]5COC6(CCN(c7ccc([C@@H]8c9ccc(O)cc9CC[C@@H]8c8ccccc8)cc7)CC6)C5)CC3C4(F)F)cc2)C(=O)N1` (stereo partly drawn) [Compound A45, (3S)-3-((4-(7,7-difluoro-3-(((R)-8-(4-((1R,2S)-6-hydroxy-2-phenyl-1,2,3,4-tetrahydro-naphthalen-1-yl)phenyl)-1-oxa-8-azaspiro[4.5]decan-3-yl)-methyl)-3-azabicyclo[4.1.0]heptan-6-yl)phenyl)amino)-piperidine-2,6-dione], the Dmax in assay [2] (setting [7]) and in assay [4] (setting [8]) was under 25% throughout. In addition, the DC50 in assay [2] (16 hrs treatment) and in assay [4] (16 hrs treatment) was over 100 nM throughout. For the same compound, the IC50 in assay [3] was over 5000 nM.

Regarding `O=C1CC[C@@H](Nc2ccc(C3CCN(C[C@@H]4COC5(CCN(c6ccc([C@@H]7c8ccc(O)cc8CC[C@@H]7c7ccccc7)cc6)CC5)C4)CC3)cc2)C(=O)N1` (single isomer, unassigned) [Compound A29], the Dmax in assay [2] (setting [5]) and in assay [4] (setting [6]) was 25 to 50% each time. Further, the 50% degradation concentration (DC50) in assay [2] (16 hrs treatment) and in assay [4] (16 hrs treatment) was 10 to 100 nM in each case. In addition, the IC50 in assay [3] fell in the range of 50 to 500 nM.

As for `O=C1CC[C@H](NC(=O)c2ccc3c(n2)OC[C@H]2CN(C[C@H]4COC5(CCN(c6ccc([C@@H]7c8ccc(O)cc8CC[C@@H]7c7ccccc7)cc6)CC5)C4)CCN32)C(=O)N1` (single isomer, unassigned) [Compound A13], the Dmax in assay [2] (setting [5]) and in assay [4] (setting [6]) was 50 to 75% each time. For the same compound, the DC50 in assay [2] (16 hrs treatment) and in assay [4] (16 hrs treatment) was 1 to 10 nM in each case. Also, in assay [3], the IC50 fell in the range of 500 to 5000 nM.

On to `O=C1CC[C@H](N2Cc3c(ccc4c3OC[C@H]3CN(CC5COC6(C5)CN(c5ccc([C@@H]7c8ccc(O)cc8CC[C@@H]7c7ccccc7)cc5)C6)CCN43)C2=O)C(=O)N1` (single isomer, unassigned) [Compound A40], for which the DC50 in assay [2] (16 hrs treatment) and in assay [4] (16 hrs treatment) was 10 to 100 nM in each case. Also, the “MCF7 Dmax” value in assay [2] (MCF-7, maximal ER degradation, 16 hrs treatment) is listed as “C (“C”: 25-50%)”. Moreover, the IC50 in assay [3] is under 50 nM. For the same compound, the “T47D Dmax” value in assay [4] (maximal ER degradation, 16 hrs treatment) is “C (“C”: 25-50%)”.

For the compound `COc1cc(N2CCC(CN3CCC4(CC3)COc3c4ccc4c3CN([C@H]3CCC(=O)NC3=O)C4=O)CC2)ccc1[C@@H]1c2ccc(O)cc2CC[C@@H]1c1ccccc1` [Compound A37, (R)-3-(1′-((1-(4-((1R,2R)-6-hydroxy-2-phenyl-1,2,3,4-tetrahydronaphthalen-1-yl)-3-methoxyphenyl)piperidin-4-yl)methyl)-6-oxo-6,8-dihydro-2H,7H-spiro[furo[2,3-e]iso-indole-3,4′-piperidin]-7-yl)-piperidine-2,6-dione], the Dmax in assay [2] (setting [7]) and in assay [4] (setting [8]) was 25 to 50% in each case. The DC50 in assay [2] (16 hrs treatment) and in assay [4] (16 hrs treatment) was under 1 nM throughout. Besides, the IC50 in assay [3] was under 50 nM.

For the compound `COc1cc(N2CCC(CN3CC[C@]4(c5ccc(N[C@@H]6CCC(=O)NC6=O)cc5)[C@H](C3)C4(F)F)CC2)ccc1[C@@H]1c2ccc(O)cc2CC[C@@H]1c1ccccc1` [Compound A89, (R)-3-((4-((1R,6R)-7,7-difluoro-3-((1-(4-((1S,2S)-6-hydroxy-2-phenyl-1,2,3,4-tetra-hydronaphthalen-1-yl)-3-meth-oxyphenyl)piperidin-4-yl)meth-yl)-3-azabicyclo[4.1.0]heptan-6-yl)phenyl)amino)-piperidine-2,6-dione], the Dmax in assay [2] (setting [7]) and in assay [4] (setting [8]) was 25 to 50% in each case. Moreover, the DC50 in assay [2] (16 hrs treatment) and in assay [4] (16 hrs treatment) was under 1 nM each time. For the same compound, the IC50 in assay [3] was over 5000 nM.

With `O=C1CCC(NC(=O)c2ccc3c(n2)OC[C@H]2CN(CC4CCN(c5ccc([C@H]6c7ccc(O)cc7CC[C@H]6c6ccccc6)cc5)CC4)CCN32)C(=O)N1` (stereo in doubt) [Compound A4, (4aR)-N-(2,6-dioxopiperidin-3-yl)-3-((1-(4-((1S,2R)-6-hydroxy-2-phenyl-1,2,3,4-tetrahydronaphthalen-1-yl)-phenyl)piperidin-4-yl)meth-yl)-1,2,3,4,4a,5-hexahydro-pyrazino[1,2-d]pyrido[2,3-b] [1,4]oxazine-8-carboxamide], the Dmax in assay [2] (setting [5]) and in assay [4] (setting [6]) was 50 to 75% each time. Besides, the DC50 in assay [2] (16 hrs treatment) was 1 to 10 nM; in assay [4] (16 hrs treatment), under 1 nM. Moreover, in assay [3], the IC50 lay within 500 to 5000 nM.

For `O=C1CC[C@H](Nc2ccc(C3CCN(C[C@H]4COC5(CCN(c6ccc([C@@H]7c8ccc(O)cc8CC[C@@H]7c7ccccc7)cc6)CC5)C4)CC3)cc2)C(=O)N1` (single isomer, unassigned) [Compound A27], the Dmax in assay [2] (setting [5]) was 25 to 50%; in assay [4] (setting [6]), under 25%. The half-maximal degradation concentration (DC50) in assay [2] (16 hrs treatment) is 10 to 100 nM; in assay [4] (16 hrs treatment) it was over 100 nM. The IC50 in assay [3] lay within 50 to 500 nM.

As for `COc1cc(N2CCC(CN3CCC4(CC3)COc3c4ccc4c3CN([C@H]3CCC(=O)NC3=O)C4=O)CC2)c(F)cc1[C@@H]1c2ccc(O)cc2CC[C@@H]1c1ccccc1` [Compound A93, (S)-3-(1′-((1-(2-fluoro-4-((1S,2S)-6-hydroxy-2-phenyl-1,2,3,4-tetrahydronaphthalen-1-yl)-5-methoxyphenyl)piperidin-4-yl)methyl)-6-oxo-6,8-dihydro-2H,7H-spiro[furo[2,3-e]isoindole-3,4′-piperidin]-7-yl)piperidine-2,6-dione], the Dmax in assay [2] (setting [7]) and in assay [4] (setting [8]) was 50 to 75% throughout. For the same compound, the DC50 in assay [2] (16 hrs treatment) and in assay [4] (16 hrs treatment) was under 1 nM each time. In assay [3], the IC50 is under 50 nM.

Take `O=C1CC[C@H](N2Cc3c(ccc4c3OC[C@H]3CN(CC5CCC6(CC5)CN(c5ncc([C@H]7c8ccc(O)cc8CC[C@H]7c7ccccc7)cn5)C6)CCN43)C2=O)C(=O)N1` (single isomer, unassigned) [Compound A155]: the Dmax in assay [2] (setting [5]) is 25 to 50%; in assay [4] (setting [6]), under 25%. In addition, the DC50 in assay [2] (16 hrs treatment) was in the range of 1 to 10 nM; in assay [4] (16 hrs treatment), 10 to 100 nM. Further, the IC50 in assay [3] was 50 to 500 nM.
